Test results taken from patent US8163909B2, “Substituted hydroxyethyl amine compounds as beta-secretase modulators and methods of use” (Amgen Inc., priority 2007, dated 2012).
Where two headings read alike, the source gives them in different places.

Key:
[1] = biological target: Beta Secretase enzyme (BACE) (Homo sapiens, UniProt P56817); experiment: In vitro enzymatic BACE FRET (fluorescence resonance energy transfer) assay; assay type: biochemical;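 further: fluorescence read after 1 h with 50 nM quenched peptide substrate spanning the BACE cleavage site, in pH 4.2 acetate buffer containing 10% DMSO and nonionic detergent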
[2] = system: Aβ40 in conditioned medium of cells stably expressing Amyloid Precursor Protein (APP); experiment: In vitro BACE cell-based assay (Aβ40 in conditioned medium, sandwich ELISA);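 further: compounds added as a dilution series, secreted peptide quantified by europium time-resolved fluorescence readout, potency fitted from percent of control versus compound concentration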
[3] = BACE enzyme FRET assay, read-out: BACE1 FRET assay (IC50)
[4] = Homo sapiens, HEK293, HEK cells, cell-based assay, read-out: HEK cell assay (IC50)
[5] = BACE enzyme assay, read-out: BACE1 FRET assay (IC50)
[6] = Table 1, read-out: BACE1 FRET assay
[7] = Homo sapiens, HEK293, Table 1, HEK cells, read-out: HEK cell assay
[8] = BACE enzyme assay, read-out: BACE1 FRET assay
[9] = Homo sapiens, HEK293, HEK cells, read-out: HEK cell assay
[10] = HEK cells, cell-based assay, read-out: HEK cell assay (IC50)

Beta Secretase enzyme (BACE), sequence (P56817 46-501): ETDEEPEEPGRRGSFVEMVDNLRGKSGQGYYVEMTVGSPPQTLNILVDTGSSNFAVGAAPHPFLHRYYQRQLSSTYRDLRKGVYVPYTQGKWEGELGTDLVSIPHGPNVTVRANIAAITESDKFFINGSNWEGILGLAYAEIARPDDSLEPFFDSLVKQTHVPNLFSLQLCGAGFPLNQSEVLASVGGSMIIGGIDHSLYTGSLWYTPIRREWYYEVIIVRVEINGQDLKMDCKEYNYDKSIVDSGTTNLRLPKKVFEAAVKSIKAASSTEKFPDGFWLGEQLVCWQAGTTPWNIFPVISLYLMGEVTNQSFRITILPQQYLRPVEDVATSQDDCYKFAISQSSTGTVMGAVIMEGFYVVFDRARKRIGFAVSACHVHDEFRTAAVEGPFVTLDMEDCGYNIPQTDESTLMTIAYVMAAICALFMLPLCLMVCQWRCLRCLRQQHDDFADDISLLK

Compound | IC50 [1, 3] [µM] | IC50 [2, 4] [µM] | IC50 [1, 5] [µM] | further results
CO[C@H](C)C(=O)N[C@@H](Cc1cc(Br)c2c(c1)OCO2)[C@H](O)CN[C@H]1CC2(CCC2)Oc2ncc(CC(C)(C)C)cc21 [compound 210, (2R)—N-((1S,2R)-1-((7-bromo-1,3-benzodioxol-5-yl)methyl)-3-(((4′S)-6′-(2,2-dimethylpropyl)-3′,4′-dihydrospiro[cyclobutane-1,2′-pyrano[2,3-b]pyridin]-4′-yl)amino)-2-hydroxypropyl)-2-(methyloxy)propanamide] | 0.163 | 0.224 |  | 
CC(C)(C)Cc1cnc2c(c1)[C@@H](NC[C@@H](O)[C@H](Cc1cccc(F)c1)NC(=O)C(F)(F)Cl)CC1(CCC1)O2 [compound 108] |  | 0.0906 | 0.00506 | 
CC(C)(C)Cc1cnc2c(c1)[C@@H](NC[C@@H](O)[C@H](Cc1cccc(F)c1)NC(=O)C1CN(C3CCC3)C(=O)C1(C)C)CC1(CCC1)O2 (stereo partly shown) [compound 66] |  | 1.11 | 0.0436 | 
CC(=O)N[C@@H](Cc1cccc(F)c1)[C@H](O)CN[C@H]1CC2(CCC2)Oc2ncc(CC(C)(F)F)cc21 [compound 277] | 0.00613 | 0.00936 |  | 
CC(C)(C)Cc1cnc2c(c1)C(NCC(O)C(Cc1ccc(F)cc1)NC(=O)CF)CC1(CC(O)C1)O2 [compound 230, N-((1S,2R)-3-(((1s,3S,4′S)-6′-(2,2-dimethylpropyl)-3-hydroxy-3′,4′-dihydrospiro[cyclobutane-1,2′-pyrano[2,3-b]pyridin]-4′-yl)amino)-1-((4-fluorophenyl)methyl)-2-hydroxypropyl)-2-fluoroacetamide] | 0.00424 | 0.01 |  | 
CC(=O)N[C@@H](Cc1ccc2c(c1)OCO2)[C@H](O)CN[C@H]1CC2(CCC2)Oc2c1cc(CC(C)(C)C)nc2Cl [compound 124] |  | 0.114 | 0.0286 | 
CO[C@H](C)C(=O)N[C@@H](Cc1cc(F)cc(F)c1)[C@H](O)CN[C@H]1CC2(CCC2)Oc2ncc(CC(F)(F)F)cc21 [compound 346] |  |  |  | IC50 [1, 6]: 0.0102 µM; IC50 [2, 7]: 0.0471 µM
COCCNc1nc(CC(C)(C)C)cc2c1OC1(CCC1)C[C@@H]2NC[C@@H](O)[C@H](Cc1ccc(F)cc1)NC(C)=O [compound 149, N-((1S,2R)-3-(((4′S)-6′-(2,2-dimethylpropyl)-8′-((2-(methyloxy)ethyl)amino)-3′,4-dihydrospiro[cyclobutane-1,2′-pyrano[2,3-c]pyridin]-4′-yl)amino)-1-((4-fluorophenyl)methyl)-2-hydroxypropyl)acetamide] |  | 0.0272 | 0.0479 | 
CC(=O)N[C@@H](Cc1ccc(F)cc1)[C@H](O)CN[C@H]1CC2(CCC2)Oc2cnc(CC(C)(C)F)cc21 [compound 254] | 0.178 | 0.152 |  | 
COCC(=O)N[C@@H](Cc1ccnc(OCC(F)(F)F)c1)[C@H](O)CN[C@H]1CC2(CCC2)Oc2ncc(CC(C)(C)C)cc21 [compound 166] |  | 0.00985 | 0.0108 | 
CC(=O)N[C@@H](Cc1ccc(F)cc1)[C@H](O)CN[C@H]1CC2(CCC2)Oc2ccc(CC(C)(C)C#N)cc21 [compound 161] |  | 0.0174 | 0.0112 | 
COCC(=O)N[C@@H](Cc1ccc(F)cc1)[C@H](O)CN[C@H]1CC2(CCC2)Oc2c(-c3ccncc3)cc(CC(C)(C)F)cc21 [compound 538] |  |  |  | IC50 [1, 8]: 0.047 µM; IC50 [2, 9]: 0.043 µM
COCC(=O)N[C@@H](Cc1ccc2c(c1)OCO2)[C@H](O)CN[C@H]1CC2(CCC2)Oc2ncc(C[C@H](C)C(F)(F)F)cc21 [compound 339] |  |  |  | IC50 [1, 6]: 0.0437 µM; IC50 [2, 7]: 0.126 µM
CO[C@H](C)C(=O)N[C@@H](Cc1ccc2c(c1)OCO2)[C@H](O)CN[C@H]1CC2(CCC2)Oc2c1cc(CC(C)(C)C)nc2N(C)C [compound 135] |  | 0.175 | 0.0647 | 
COCC(=O)N[C@@H](Cc1cccc(F)c1)[C@H](O)CN[C@H]1CC2(CCC2)Oc2ncc(C[C@@H](C)C(F)(F)F)cc21 [compound 326] |  |  |  | IC50 [1, 6]: 0.00777 µM; IC50 [2, 7]: 0.0271 µM
CC(O)C(=O)N[C@@H](Cc1ccc(F)cc1)[C@H](O)CN[C@H]1CC2(CCC2)Oc2ncc(CC(C)(C)C)cc21 (stereo partly shown) [compound 156] |  | 0.0453 | 0.0277 | 
COCC(=O)N[C@@H](Cc1ccc(F)cc1)[C@H](O)CN[C@H]1CC2(CCC2)Oc2ccc(CC(C)(C)C#N)cc21 [compound 162] |  | 0.0311 | 0.0446 | 
COCC(=O)N[C@@H](Cc1cc(F)c2c(c1)OCO2)[C@H](O)CN[C@H]1CC2(CCC2)Oc2ncc(CC(C)(C)C)cc21 [compound 302] | 0.00573 | 0.0115 |  | 
COCC(=O)N[C@@H](Cc1ccc(F)cc1)[C@H](O)CN[C@H]1CC2(CCC2)Oc2c(F)cc(CC(C)(C)C#N)cc21 [compound 172] |  | 0.0433 | 0.0186 | 

Compound | IC50 [1, 3] [µM] | IC50 [2, 4] [µM] | IC50 [1, 5] [µM] | further results
CC(=O)N[C@@H](Cc1ccc(F)cc1)[C@H](O)CN[C@H]1C[C@@]2(CC[C@@H]2O)Oc2ncc(CC(C)(C)C)cc21 [compound 114] |  | 0.909 | 1.58 | 
CC(C)C(=O)N[C@@H](Cc1ccc2c(c1)OCO2)[C@H](O)CN[C@H]1CC2(CCC2)Oc2ncc(CC(C)(C)C)cc21 [compound 881] |  |  |  | IC50 ([1]; BACE enzyme assay, IC50's in uM, read-out: BACE1 FRET assay): 0.144 µM; IC50 ([2]; Homo sapiens, HEK293, cell-based assay, HEK cells, IC50's in uM, read-out: HEK cell assay): 0.813 µM
C=CC[C@H](NC(=O)COC)[C@H](O)CN[C@H]1CC2(CCC2)Oc2cnc(CC(C)(C)C)cc21 [compound 120] |  | 0.343 | 0.745 | 
COCC(=O)N[C@@H](Cc1ccccc1)[C@H](O)CNC1CC2(CC(F)(F)C2)Oc2ncc(CC(C)(C)C)cc21 (stereo partly shown) [compound 54] |  | 0.066 | 0.003 | 
COCC(=O)N[C@@H](Cc1ccnc(C(F)(F)F)c1)[C@H](O)CN[C@H]1CC2(CCC2)Oc2ncc(CC(C)(C)C)cc21 [compound 163] |  | 0.0359 | 0.0269 | 
CO[C@H](C)C(=O)N[C@@H](Cc1cccc(C#N)c1)[C@H](O)CN[C@H]1CC2(CCC2)Oc2ncc(CC(C)(C)F)cc21 [compound 58] |  | 0.00678 | 0.00575 | 
CO[C@H](C)C(=O)N[C@@H](Cc1cccc(F)c1)[C@H](O)CN[C@H]1CC2(CCC2)Oc2c(-c3ccncc3)cc(CC(C)(C)F)cc21 [compound 564] |  |  |  | IC50 [1, 8]: 0.032 µM; IC50 [2, 9]: 0.029 µM
CO[C@H](C)C(=O)N[C@@H](Cc1ccc(F)cc1)[C@H](O)CN[C@H]1C[C@]2(C[C@H](O)C2)Oc2ncc(CC(C)C)cc21 [compound 250, (2R)—N-((1S,2R)-1-((4-fluorophenyl)methyl)-2-hydroxy-3-(((1s,3S,4′S)-3-hydroxy-6′-(2-methylpropyl)-3′,4′-dihydrospiro[cyclobutane-1,2′-pyrano[2,3-b]pyridin]-4′-yl)amino)propyl)-2-(methyloxy)propanamide] | 0.0128 |  |  | IC50 [2, 10]: 0.0273 µM
CC(C)(C)Cc1cnc2c(c1)[C@@H](NC[C@@H](O)[C@H](Cc1ccc(F)cc1)NC(=O)[C@H](O)C(F)(F)F)CC1(CCC1)O2 [compound 68] |  | 0.0553 | 0.0486 | 
CC(=O)N[C@@H](Cc1ccccc1)[C@H](O)CN[C@H]1CC2(CCC2)Oc2ncc(CC3CC3)cc21 [compound 202] | 0.0342 | 0.0659 |  | 
COC(C)C(=O)NC(Cc1ccc2c(c1)OCO2)C(O)CNC1CC2(CC(O)C2)Oc2ncc(CC(C)C)cc21 [compound 248, (2R)—N-((1S,2R)-1-(1,3-benzodioxol-5-ylmethyl)-2-hydroxy-3-(((1s,3S,4′S)-3-hydroxy-6′-(2-methylpropyl)-3′,4′-dihydrospiro[cyclobutane-1,2′-pyrano[2,3-b]pyridin]-4′-yl)amino)propyl)-2-(methyloxy)propanamide] | 0.0172 | 0.035 |  | 
CC(=O)N[C@@H](Cc1ccc2c(c1)OCO2)[C@H](O)CN[C@H]1CC2(CCC2)Oc2ncc(C[C@H](C)C(F)(F)F)cc21 [compound 320] |  |  |  | IC50 [1, 6]: 0.155 µM; IC50 [2, 7]: 0.12 µM
COC(C)C(=O)NC(Cc1ccc2c(c1)OCO2)C(O)CNC1CC2(CC(O)C2)Oc2ccc(CC(C)(C)C)cc21 [compound 268, (2R)—N-((1S,2R)-1-(1,3-benzodioxol-5-ylmethyl)-3-(((2s,3′S,4S)-6-(2,2-dimethylpropyl)-3′-hydroxy-3,4-dihydrospiro[chromene-2,1′-cyclobutan]-4-yl)amino)-2-hydroxypropyl)-2-(methyloxy)propanamide] | 0.0187 |  |  | IC50 [2, 10]: 0.0151 µM
COCC(=O)N[C@@H](Cc1ccc2c(c1)OCO2)[C@H](O)CN[C@H]1CC(C)(C)Cc2sc(CC(C)(C)C)cc21 [compound 187] | 0.0202 | 0.0635 |  | 
N-((1S,2R)-1-((3-cyanophenyl)methyl)-3-(((4′S)-6′-(2,2-dimethylpropyl)-3′,4′-dihydrospiro[cyclobutane-1,2′-pyrano[2,3-b]pyridin]-4′-yl)amino)-2-hydroxypropyl)-1-cyclobutyl-4,4-dimethyl-5-oxo-3-pyrrolidinecarboxamide [compound 60] |  |  | 0.0211 | IC50 [2, 10]: 0.0631 µM
CC(=O)N[C@@H](Cc1cc(F)c2c(c1)OCO2)[C@H](O)CN[C@H]1CC2(CCC2)Oc2ncc(CC(C)(C)C)cc21 [compound 306] | 0.00428 | 0.00747 |  | 
CC(C)(C)Cc1cnc2c(c1)[C@@H](NC[C@@H](O)[C@H](Cc1ccc3c(c1)OCO3)NC(=O)CF)CC1(CCC1)O2 [compound 283] | 0.00751 | 0.019 |  | 
CC(=O)N[C@@H](Cc1cccc(F)c1)[C@H](O)CN[C@H]1CC2(CCC2)Oc2ncc(OC(C)(F)F)cc21 [compound 151, N-((1S,2R)-3-(((4′S)-6′-((1,1-difluoroethyl)oxy)-3′,4′-dihydrospiro[cyclobutane-1,2′-pyrano[2,3-b]pyridin]-4′-yl)amino)-1-((3-fluorophenyl)methyl)-2-hydroxypropyl)acetamide] |  | 0.0841 | 0.0205 | 
COCC(=O)N[C@@H](Cc1ccc2c(c1)OCCO2)[C@H](O)CN[C@H]1CC2(CCC2)Oc2ncc(CC(C)(C)C)cc21 [compound 206] | 0.0227 | 0.0425 |  | 
